Reference: patent publication US20140148484A1, “PYRAZOLE COMPOUNDS FOR TREATING HAIRLOSS” (Boehringer Ingelheim International GmbH, priority 2012, published 2014)

Molecular target: T1, human CRTH2 receptor (Homo sapiens, UniProt Q9Y5Y4)
T1 construct: host or cells: CHO-K1 (CHO-K1-hCRTH2 cells); membranes prepared in house from the purchased cell line
T1 sequence (Q9Y5Y4 1-395): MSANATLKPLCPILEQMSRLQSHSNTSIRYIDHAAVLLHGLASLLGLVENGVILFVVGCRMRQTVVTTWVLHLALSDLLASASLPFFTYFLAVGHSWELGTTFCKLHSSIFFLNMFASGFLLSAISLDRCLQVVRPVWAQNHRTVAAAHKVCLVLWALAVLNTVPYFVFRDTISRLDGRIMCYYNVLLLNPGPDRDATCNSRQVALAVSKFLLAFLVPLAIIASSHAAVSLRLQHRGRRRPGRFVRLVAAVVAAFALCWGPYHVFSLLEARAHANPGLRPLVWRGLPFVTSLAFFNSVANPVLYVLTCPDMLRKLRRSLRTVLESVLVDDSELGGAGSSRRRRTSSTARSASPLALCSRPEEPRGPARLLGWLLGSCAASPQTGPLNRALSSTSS
Experiment: Human CRTH2 receptor membrane radioligand binding assay (SPA, [3H]-PGD2)
Details: displacement of [3H]-PGD2 (1 nM) from CHO-K1-hCRTH2 cell membranes, 3 h room temperature
In short: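 SPA binding using membranes from CHO-K1 cells expressing human CRTH2 (0.5–10 μg protein/well) with 1 nM [3H]-PGD2 in Tris pH 7.4 buffer with 0.1% BSA, 3 h at room temperature. Non-specific binding defined with 1 μM PGD2 or 10 μM CAY10471; inhibition calculated from specific binding.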
With `COc1ccc(CCNS(=O)(=O)c2ccc(Cn3nc(C)c(CC(=O)O)c3C)cc2)cc1OC` [Example 10.2] the Ki was 742 nM. Compound `Cc1nn(Cc2ccc([S+]([O-])Cc3ccc(Cl)c(Cl)c3)cc2)c(C)c1CC(=O)O` (stereo not drawn) [Example 19.2] has a Ki of 12 nM. In the case of `O=C(O)Cc1c(-c2ccccc2)nn(Cc2ccc(NC(=O)c3ccc4ccccc4c3)cc2)c1-c1ccccc1` [Example 2.44], the Ki is reported as 10.2 nM. For `Cc1nn(Cc2ccc(NCc3ccccc3)cc2)c(C)c1CC(=O)O` [Example 6.2], the Ki was 311 nM. In the case of `Cc1nn(Cc2ccc(NCc3ccc(C(F)(F)F)cc3)cc2)c(C)c1CC(=O)O` [Example 6.3], the Ki is reported as 261 nM. For `CCc1nn(Cc2ccc(C(=O)N[C@@H]3CCC[C@H](c4ccccc4)C3)cc2)c(CC)c1CC(=O)O` [Example 9.22], the Ki was 15.6 nM. In the case of `CCc1nn(Cc2ccc(NC(=O)C(C)(C)C)cc2)c(CC)c1CC(=O)O` [Example 2.30], the Ki is reported as 5.8 nM. `Cc1cc(NC(=O)c2ccc3ccccc3c2)ccc1Cn1nc(C)c(CC(=O)O)c1C` [Example 7.5] gave a Ki of 0.3 nM. For `CCc1nn(Cc2ccc(NC(=O)c3ccc4ccccc4c3)cc2)c(CC)c1CC(=O)O` [Example 2.14], the Ki was 0.2 nM. Compound `Cc1c(CC(=O)O)cnn1Cc1ccc(NC(=O)c2ccc3ccccc3c2)cc1` [Example 2.58] has a Ki of 24.6 nM. For `CCc1nn(Cc2ccc(NC(=O)C(C)C)cc2)c(CC)c1CC(=O)O` [Example 2.34], the Ki was 4.3 nM. For `O=C(O)Cc1c(-c2ccccc2)nn(Cc2ccc(NC(=O)c3ccc(Cl)cc3)cc2)c1-c1ccccc1` [Example 2.43], the Ki was 17.4 nM. `CCc1nn(Cc2ccc(OCc3cccc(C)c3)cc2)c(CC)c1CC(=O)O` [Example 13.13] gave a Ki of 49.9 nM. For `CCc1nn(Cc2ccc(NC(=O)c3ccc(C)cc3)cc2)c(CC)c1CC(=O)O` [Example 2.4], the Ki was 1.3 nM. For `CCc1nn(Cc2ccc(NC(=O)c3ccc(Cl)cc3C)cc2)c(C2CC2)c1CC(=O)O` [Example 2.49], the Ki was 0.6 nM. `CCc1nn(Cc2ccc(C(=O)NC3CCC(C)(C)CC3)cc2)c(CC)c1CC(=O)O` [Example 9.24] gave a Ki of 49.1 nM. `Cc1nn(Cc2ccc(NC(=O)CCc3ccccc3)cc2)c(C)c1CCC(=O)O` [Example 8.5] showed a Ki of 427 nM. For `COc1c(CC(=O)O)c(C)nn1Cc1ccc(NC(=O)c2ccc3ccccc3c2)cc1` [Example 2.60], the Ki was 4.2 nM. `COc1ccc(COc2ccc(Cn3nc(C)c(CC(=O)O)c3C)cc2)cc1C(F)(F)F` [Example 13.6] showed a Ki of 28.9 nM. `Cc1nn(Cc2ccc(COc3ccccc3)cc2)c(C)c1CC(=O)O` [Example 14.3] gave a Ki of 742 nM. For `CCc1nn(Cc2ccc(NC(=O)c3ccc(C)cc3C)cc2)c(CC)c1CC(=O)O` [Example 2.15], the Ki was 1.4 nM. `Cc1ccc(Br)c(C(=O)Nc2ccc(Cn3nc(C)c(CC(=O)O)c3C)cc2)c1` [Example 1.31] gave a Ki of 18.9 nM. `Cc1cc(Cn2nc(C)c(CC(=O)O)c2C)ccc1NC(=O)c1ccc(Cl)c(Cl)c1` [Example 7.4] showed a Ki of 2.2 nM. For `CCc1c(CC(=O)O)c(C2CC2)nn1Cc1ccc(NC(=O)c2ccc(Cl)cc2C)cc1` [Example 2.46], the Ki was 0.6 nM. `CCc1nn(Cc2ccc(NC(=O)[C@H]3CC[C@@H](C(F)(F)F)CC3)cc2)c(CC)c1CC(=O)O` [Example 2.16] showed a Ki of 23.9 nM. Compound `CCc1nn(Cc2ccc([S+]([O-])Cc3ccccc3)cc2)c(CC)c1CC(=O)O` (stereo not drawn) [Example 19.4] has a Ki of 48.8 nM. `Cc1nn(Cc2ccc(NC(=O)c3ccccc3)cc2)c(C)c1CCC(=O)O` [Example 8.3] showed a Ki of 3760 nM. `Cc1nn(Cc2ccc(NC(=O)c3ccc4ccccc4c3)cc2Cl)c(C)c1CC(=O)O` [Example 7.13] gave a Ki of 1.3 nM. `Cc1c(CC(=O)O)c(-c2ccccc2)nn1Cc1ccc(NC(=O)c2ccc(C(F)(F)F)cc2)cc1` [Example 2.11] gave a Ki of 1.2 nM. `Cc1nn(Cc2ccc(NC(=O)c3ccc(C(F)(F)F)cc3)cc2)c(C)c1CC(=O)NS(=O)(=O)C(C)(C)C` [Example 11.1] showed a Ki of 29.4 nM. In the case of `Cc1nn(Cc2ccc(NC(=O)c3ccc(C(F)(F)F)cc3)cc2Cl)c(C)c1CC(=O)O` [Example 7.8], the Ki is reported as 0.8 nM. For `Cc1ccc(C(=O)Nc2ccc(Cn3nc(C)c(CC(=O)O)c3C)cc2)c(C)c1` [Example 1.12], the Ki was 12.9 nM. For `Cc1nn(Cc2ccc(C(O)Cc3ccccc3)cc2)c(C)c1CC(=O)O` (stereo not drawn) [Example 15.1], the Ki was 785 nM. `Cc1nn(Cc2ccc(NC(=O)c3ccc(Cl)cc3Br)cc2)c(C)c1CC(=O)O` [Example 1.28] showed a Ki of 12.4 nM.

Tested on: explanted human hair follicles
Experiment: not given
Details: administration to explanted human hair follicles; cited from earlier work
For `CCCCC[C@H](O)/C=C/[C@H]1C(=O)C[C@H](O)[C@@H]1C/C=C\CCCC(=O)O` [PGD2, prostaglandin D2], the hair growth is listed as “inhibited hair growth”.

Tested on: hair growth in mice
Experiment: not given
Details: applied topically to the skin of wild-type mice; cited from earlier work
For `CCCCC[C@H](O)/C=C/[C@H]1C(=O)C[C@H](O)[C@@H]1C/C=C\CCCC(=O)O` [PGD2, prostaglandin D2], the hair growth is given as “inhibited hair growth”.
